Reference: patent US7365053B2, “Selective N-acylation of A82846 glygopeptides analogs” (priority 2000, dated 2008)
≈ marks a conversion by molar mass, not a printed value.

Tests used:
[1] = test system: Staphylococcus haemolyticus 415; assay: Broth micro-dilution MIC; type: cell-based
Method: (§1) The compounds of the present invention have in vitro activity against Gram-positive pathogenic bacteria. The antibacterial activity of the present compounds is illustrated in Tables III and IV. The minimal inhibitory concentrations (MICs) were determined using a standard broth micro-dilution assay. Table IV presents a comparison of the activity of illustrative compounds against representative vancomycin-resistant and vancomycin-sensitive enterococci (Enterococcus faecium and Enterococcus faecalis), mean geometric MIC (mcg/mL), as determined by the standard broth microdilution assay.
(§2) Assays for antimicrobial activity were performed using microbroth susceptibility testing methods as described by the NCCLS (National Committee for Clinical Laboratories Standards. 1990. Approved standard M7-A2. Methods for dilution antimicrobial susceptibility testing for bacteria that grow aerobically, 2 ed., Villanova Pa.). Brain-heart infusion medium (BHI) was used for testing of enterococci, and NCCLS recommendations for medium were followed for other bacteria.

[2] = test system: Staphylococcus aureus X400; assay: Broth micro-dilution MIC; type: cell-based
Method: as §1, §2

[3] = test system: Enterococcus faecium 180-1; assay: Broth micro-dilution MIC; type: cell-based; conditions: BHI medium
Method: as §1, §2

Enterococcus faecium 180 = assay: Broth micro-dilution MIC; type: cell-based; conditions: BHI medium
Method: as §1, §2

[4] = test system: Staphylococcus aureus SA1199; assay: Broth micro-dilution MIC; type: cell-based
Method: as §1, §2

[5] = test system: Staphylococcus aureus 489; assay: Broth micro-dilution MIC; type: cell-based
Method: as §1, §2

Escherichia coli EC14 = assay: Broth micro-dilution MIC; type: cell-based
Method: as §1, §2

[6] = test system: Streptococcus pyogenes C203; assay: Broth micro-dilution MIC; type: cell-based
Method: as §1, §2

[7] = test system: Staphylococcus aureus 491; assay: Broth micro-dilution MIC; type: cell-based
Method: as §1, §2

[8] = test system: Staphylococcus aureus S13E; assay: Broth micro-dilution MIC; type: cell-based
Method: as §1, §2

[9] = test system: Staphylococcus aureus 446; assay: Broth micro-dilution MIC; type: cell-based
Method: as §1, §2

[10] = test system: Staphylococcus aureus X778; assay: Broth micro-dilution MIC; type: cell-based
Method: as §1, §2

[11] = test system: Staphylococcus epidermidis 270; assay: Broth micro-dilution MIC; type: cell-based
Method: as §1, §2

[12] = test system: Enterococcus gallinarum 245; assay: Broth micro-dilution MIC; type: cell-based; conditions: BHI medium
Method: as §1, §2

[13] = test system: Staphylococcus aureus SA1199A; assay: Broth micro-dilution MIC; type: cell-based
Method: as §1, §2

[14] = test system: Enterococcus faecalis 2041; assay: Broth micro-dilution MIC; type: cell-based; conditions: BHI medium
Method: as §1, §2

[15] = test system: Staphylococcus aureus SA1199B; assay: Broth micro-dilution MIC; type: cell-based
Method: as §1, §2

[16] = test system: Enterococcus faecalis 276; assay: Broth micro-dilution MIC; type: cell-based; conditions: BHI medium
Method: as §1, §2

[17] = test system: Staphylococcus haemolyticus 105; assay: Broth micro-dilution MIC; type: cell-based
Method: as §1, §2

[18] = test system: Haemophilus influenzae RD; assay: Broth micro-dilution MIC; type: cell-based
Method: as §1, §2

[19] = test system: Staphylococcus aureus 447; assay: Broth micro-dilution MIC; type: cell-based
Method: as §1, §2

[20] = test system: Streptococcus pneumoniae P1; assay: Broth micro-dilution MIC; type: cell-based
Method: as §1, §2

[21] = test system: vancomycin-sensitive enterococci; assay: In vitro activity against enterococci, broth microdilution; type: cell-based, Enterococcus faecium and Enterococcus faecalis; conditions: representative vancomycin-sensitive enterococci (E. faecium and E. faecalis); BHI medium
Method: as §1, §2

[22] = test system: vancomycin-resistant enterococci; assay: as above; type: cell-based, Enterococcus faecium and Enterococcus faecalis; conditions: representative vancomycin-resistant enterococci (E. faecium and E. faecalis); BHI medium
Method: as §1, §2

Row | SMILES | MIC [1] [mg/L] | MIC [2] | MIC [3] | MIC (Enterococcus faecium 180) | MIC [4] | MIC [5] | MIC (Escherichia coli EC14) [mg/L] | MIC [6] | MIC [7] | MIC [8] | MIC [9] | MIC [10] [mg/L] | MIC [11] | MIC [12] [mg/L] | MIC [13] | MIC [14] | MIC [15] | MIC [16] | MIC [17] | MIC [18] [mg/L] | further results
1 | CNC(CC(C)C)C(=O)NC1C(=O)NC(CC(N)=O)C(=O)NC2C(=O)NC3C(=O)NC(C(=O)NC(C(=O)O)c4cc(O)cc(O)c4-c4cc3ccc4O)C(OC3CC(C)(N)C(O)C(C)O3)c3ccc(c(Cl)c3)Oc3cc2cc(c3OC2OC(CO)C(O)C(O)C2OC2CC(C)(NC(=O)c3ccc(-c4ccc(Cl)cc4)cc3)C(O)C(C)O2)Oc2ccc(cc2Cl)C1O (stereo not drawn) [Example 4] | 4 (≈ 2.21 µM) | 0.25 mg/L (≈ 0.138 µM) | ≦.06 μg/ml | ≦.06 μg/ml | 0.5 mg/L (≈ 0.277 µM) | 0.25 mg/L (≈ 0.138 µM) | >64 | 0.125 mg/L (≈ 0.0692 µM) | 0.5 mg/L (≈ 0.277 µM) | 0.5 mg/L (≈ 0.277 µM) | 1 mg/L (≈ 0.553 µM) | 0.25 (≈ 0.138 µM) | 2 mg/L (≈ 1.11 µM) | 4 (≈ 2.21 µM) | 0.25 mg/L (≈ 0.138 µM) | ≦.06 μg/ml | 0.5 mg/L (≈ 0.277 µM) | 0.125 mg/L (≈ 0.0692 µM) | 1 mg/L (≈ 0.553 µM) | 0.25 (≈ 0.138 µM) | MIC [19]: 4 mg/L (≈ 2.21 µM); MIC [20]: 0.125 mg/L (≈ 0.0692 µM); Mean geometric MIC, Vancomycin Sensitive Strains [21]: 0.093 mg/L; Mean geometric MIC, Vancomycin Resistant Strains [22]: 3.4 mg/L
2 | CNC(CC(C)C)C(=O)NC1C(=O)NC(CC(N)=O)C(=O)NC2C(=O)NC3C(=O)NC(C(=O)NC(C(=O)O)c4cc(O)cc(O)c4-c4cc3ccc4O)C(OC3CC(C)(NC(=O)c4ccc(-c5ccc(Cl)cc5)cc4)C(O)C(C)O3)c3ccc(c(Cl)c3)Oc3cc2cc(c3OC2OC(CO)C(O)C(O)C2OC2CC(C)(N)C(O)C(C)O2)Oc2ccc(cc2Cl)C1O (stereo not drawn) [Example 5] | 8 (≈ 4.43 µM) | ≦.06 μg/ml | ≦.06 μg/ml | 1 mg/L (≈ 0.553 µM) | 0.5 mg/L (≈ 0.277 µM) | ≦.06 μg/ml | >64 | ≦.06 μg/ml | ≦.06 μg/ml | 0.5 mg/L (≈ 0.277 µM) | 0.5 mg/L (≈ 0.277 µM) | 0.5 (≈ 0.277 µM) | 4 mg/L (≈ 2.21 µM) | 8 (≈ 4.43 µM) | ≦.06 μg/ml | ≦.06 μg/ml | 0.25 mg/L (≈ 0.138 µM) | ≦.06 μg/ml | 0.5 mg/L (≈ 0.277 µM) | >64 | MIC [19]: 2 mg/L (≈ 1.11 µM); MIC [20]: ≦.06 μg/ml; Mean geometric MIC, Vancomycin Sensitive Strains [21]: 0.29 mg/L; Mean geometric MIC, Vancomycin Resistant Strains [22]: 19 mg/L
3 | CCCCCCCCOc1ccc(C(=O)NC2(C)CC(OC3C(Oc4c5cc6cc4Oc4ccc(cc4Cl)C(OC4CC(C)(N)C(O)C(C)O4)C4NC(=O)C(NC(=O)C6NC(=O)C(CC(N)=O)NC(=O)C(NC(=O)C(CC(C)C)NC)C(O)c6ccc(c(Cl)c6)O5)c5ccc(O)c(c5)-c5c(O)cc(O)cc5C(C(=O)O)NC4=O)OC(CO)C(O)C3O)OC(C)C2O)cc1 (stereo not drawn) [Example 6] | 8 (≈ 4.38 µM) | 4 mg/L (≈ 2.19 µM) | 0.125 mg/L (≈ 0.0685 µM) | 0.25 mg/L (≈ 0.137 µM) | 4 mg/L (≈ 2.19 µM) | 1 mg/L (≈ 0.548 µM) | >64 | 0.125 mg/L (≈ 0.0685 µM) | 2 mg/L (≈ 1.1 µM) | 8 mg/L (≈ 4.38 µM) | 2 mg/L (≈ 1.1 µM) | 2 (≈ 1.1 µM) | 8 mg/L (≈ 4.38 µM) | 8 (≈ 4.38 µM) | 0.25 mg/L (≈ 0.137 µM) | 0.25 mg/L (≈ 0.137 µM) | 2 mg/L (≈ 1.1 µM) | 1 mg/L (≈ 0.548 µM) | 0.5 mg/L (≈ 0.274 µM) | >64 | MIC [19]: 8 mg/L (≈ 4.38 µM); MIC [20]: 0.25 mg/L (≈ 0.137 µM); Mean geometric MIC, Vancomycin Sensitive Strains [21]: 1.2 mg/L; Mean geometric MIC, Vancomycin Resistant Strains [22]: 11.3 mg/L
4 | CCCCCCCCOc1ccc(C(=O)NC2(C)CC(OC3c4ccc(c(Cl)c4)Oc4cc5cc(c4OC4OC(CO)C(O)C(O)C4OC4CC(C)(N)C(O)C(C)O4)Oc4ccc(cc4Cl)C(O)C(NC(=O)C(CC(C)C)NC)C(=O)NC(CC(N)=O)C(=O)NC5C(=O)NC4C(=O)NC3C(=O)NC(C(=O)O)c3cc(O)cc(O)c3-c3cc4ccc3O)OC(C)C2O)cc1 (stereo not drawn) [Example 7] | 8 (≈ 4.38 µM) | 0.125 mg/L (≈ 0.0685 µM) | ≦.06 μg/ml | 0.5 mg/L (≈ 0.274 µM) | ≦.06 μg/ml | ≦.06 μg/ml | >64 | ≦.06 μg/ml | ≦.06 μg/ml | ≦.06 μg/ml | ≦.06 μg/ml | 0.125 (≈ 0.0685 µM) | ≦.06 μg/ml | 8 (≈ 4.38 µM) | ≦.06 μg/ml | ≦.06 μg/ml | ≦.06 μg/ml | ≦.06 μg/ml | ≦.06 μg/ml | >64 | MIC [19]: 0.125 mg/L (≈ 0.0685 µM); MIC [20]: ≦.06 μg/ml; Mean geometric MIC, Vancomycin Sensitive Strains [21]: 0.06 mg/L; Mean geometric MIC, Vancomycin Resistant Strains [22]: 6.7 mg/L
5 | CCCCCCCC(=O)NC1(C)CC(OC2C(Oc3c4cc5cc3Oc3ccc(cc3Cl)C(OC3CC(C)(N)C(O)C(C)O3)C3NC(=O)C(NC(=O)C5NC(=O)C(CC(N)=O)NC(=O)C(NC(=O)C(CC(C)C)NC)C(O)c5ccc(c(Cl)c5)O4)c4ccc(O)c(c4)-c4c(O)cc(O)cc4C(C(=O)O)NC3=O)OC(CO)C(O)C2O)OC(C)C1O (stereo not drawn) [Example 8, 4′-N-octanoyl-A82846B] | 16 (≈ 9.31 µM) | 0.5 mg/L (≈ 0.291 µM) | 0.125 mg/L (≈ 0.0727 µM) | 2 mg/L (≈ 1.16 µM) | 2 mg/L (≈ 1.16 µM) | 0.25 mg/L (≈ 0.145 µM) | >64 | ≦.06 μg/ml | 0.25 mg/L (≈ 0.145 µM) | 2 mg/L (≈ 1.16 µM) | 2 mg/L (≈ 1.16 µM) | 1 (≈ 0.582 µM) | 8 mg/L (≈ 4.65 µM) | 16 (≈ 9.31 µM) | 0.25 mg/L (≈ 0.145 µM) | 0.25 mg/L (≈ 0.145 µM) | 2 mg/L (≈ 1.16 µM) | 0.5 mg/L (≈ 0.291 µM) | 0.5 mg/L (≈ 0.291 µM) | 64 (≈ 37.2 µM) | MIC [19]: 8 mg/L (≈ 4.65 µM); MIC [20]: ≦.06 μg/ml; Mean geometric MIC, Vancomycin Sensitive Strains [21]: 0.87 mg/L; Mean geometric MIC, Vancomycin Resistant Strains [22]: 54 mg/L
6 | CCCCCCCC(=O)NC1(C)CC(OC2c3ccc(c(Cl)c3)Oc3cc4cc(c3OC3OC(CO)C(O)C(O)C3OC3CC(C)(N)C(O)C(C)O3)Oc3ccc(cc3Cl)C(O)C(NC(=O)C(CC(C)C)NC)C(=O)NC(CC(N)=O)C(=O)NC4C(=O)NC3C(=O)NC2C(=O)NC(C(=O)O)c2cc(O)cc(O)c2-c2cc3ccc2O)OC(C)C1O (stereo not drawn) [Example 9, 6′-N-octanoyl-A82846B] | 16 (≈ 9.31 µM) | 0.5 mg/L (≈ 0.291 µM) | 0.125 mg/L (≈ 0.0727 µM) | 32 mg/L (≈ 18.6 µM) | 0.5 mg/L (≈ 0.291 µM) | 0.125 mg/L (≈ 0.0727 µM) | >64 | ≦.06 μg/ml | 0.125 mg/L (≈ 0.0727 µM) | 1 mg/L (≈ 0.582 µM) | 1 mg/L (≈ 0.582 µM) | 0.25 (≈ 0.145 µM) | 2 mg/L (≈ 1.16 µM) | 16 (≈ 9.31 µM) | 0.125 mg/L (≈ 0.0727 µM) | 0.5 mg/L (≈ 0.291 µM) | 0.5 mg/L (≈ 0.291 µM) | 0.125 mg/L (≈ 0.0727 µM) | 0.25 mg/L (≈ 0.145 µM) | 64 (≈ 37.2 µM) | MIC [19]: 2 mg/L (≈ 1.16 µM); MIC [20]: ≦.06 μg/ml; Mean geometric MIC, Vancomycin Sensitive Strains [21]: 1.2 mg/L; Mean geometric MIC, Vancomycin Resistant Strains [22]: >90 mg/L
